What all share (test): normalised viability (% of control), CellTiter-Blue; higher = more viable cells (about 100 = DMSO control)
Details in all cases: incubation time: 72 h
On the technique in general: Resazurin is reduced to fluorescent resorufin, in cell work by metabolically active cells.

For assay [1], the system named is HDQ-P1. The method, then:
(§1)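 DSRT, CellTiter-Blue viability, 72 h incubation. Signal is normalised to DMSO and benzethonium chloride controls. Value is the normalised response at dose 7.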

In assay [2] the test system is DU-4475. As for the experimental part:
as §1

For assay [3], the system named is CAL-51. The method, then: as §1
Assay [4] has as its system CAL-148. The method, then:
as §1

Assay [5] relates to MDA-MB-453. The method, then:
as §1

Assay [6] deals with CAL-85-1. The method, then: as §1
Assay [7] has as its system HDQ-P1. The method, then:
(§2)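 DSRT, CellTiter-Blue viability, 72 h incubation. Signal is normalised to DMSO and benzethonium chloride controls. Value is the normalised response at dose 9.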
This is another data set of the same source.

Assay [8] has as its system DU-4475. The method, then:
as §2
The source holds these as a separate data set.

Assay [9] has as its system CAL-51. As for the experimental part:
as §2
The source holds these as a separate data set.

In assay [10] the test system is CAL-148. The method, then: as §2
This is another data set of the same source.

Assay [11] relates to MDA-MB-453. The method, then: as §2
This is another data set of the same source.

Assay [12] deals with CAL-85-1. As for the experimental part: as §2
The source holds these as a separate data set.

In another assay the test system is MDA-MB-231. In a few lines: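 Normalised viability is given for a single listed concentration of the series. In 384-well plates, breast cancer cell lines were incubated 72 h with compound, then read with CellTiter-Blue (2 h, 37 °C) at 560/590 nm. Per-plate scaling set vehicle to 100 and a positive kill control to 0, with Z'-factor quality control.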

SMILES strings stand for the structures. Where “and” joins values, the source holds several entries; their conditions need not be identical. Equal values may be shown once.

Among the data in the supplement of paper PMC4862054 are normalised viability values, retold here.

Regarding `C[C@@H]1C=C2C(=O)O[C@@H]3CC[C@H](C1)[C@]23O` [Galiellalactone] (5000 nM), the normalised viability amounted to 98% with HDQ-P1 [1]; 118% with DU-4475 [2]; 105% with CAL-51 [3]; 147% in the assay with CAL-148 [4]; 73.7% in the assay with MDA-MB-453 [5]; 72.6% in the assay with CAL-85-1 [6].
Regarding `C[C@@H]1C=C2C(=O)O[C@@H]3CC[C@H](C1)[C@]23O` [Galiellalactone] (50000 nM), the normalised viability in the assay on HDQ-P1 [7] was determined as 41.7%; with DU-4475 [8], 77.4%; in the assay with CAL-51 [9], 43.1%; in the assay on CAL-148 [10], 22.4%; in the assay on MDA-MB-453 [11] it was 9.52%; with CAL-85-1 [12] it was 9.47%.
Consider `COC1=C2C[C@@H](C)C[C@H](OC)[C@H](O)[C@@H](C)/C=C(\C)[C@H](OC(N)=O)[C@@H](OC)/C=C\C=C(/C)C(=O)NC(=CC1=O)C2=O` [Geldanamycin] (1000 nM), for which the normalised viability in the assay on HDQ-P1 [1] came to 17.8%; in the assay on DU-4475 [2], 0.05%; with CAL-51 [3], 26.2%; in the assay on CAL-148 [4], 14.5%; in the assay with MDA-MB-453 [5], 7.25%; in the assay with CAL-85-1 [6] it was 23.7%.
For the compound `COC1=C2C[C@@H](C)C[C@H](OC)[C@H](O)[C@@H](C)/C=C(\C)[C@H](OC(N)=O)[C@@H](OC)/C=C\C=C(/C)C(=O)NC(=CC1=O)C2=O` [Geldanamycin] (10000 nM), the normalised viability in the assay with HDQ-P1 [7] was 14.5%; in the assay on DU-4475 [8], -0.94%; in the assay on CAL-51 [9], 2.17%; with CAL-148 [10], 7.57%; in the assay with MDA-MB-453 [11], 7.62%; in the assay on CAL-85-1 [12], 6.88%.
With `O=P(O)(NCCCl)NCCCl` [Ifosfamide mustard], the values for the normalised viability with MDA-MB-231 (10 nM), in the assay on MDA-MB-231 (1000 nM) and with MDA-MB-231 (10000 nM) were 108%, 124% and 86.6%, respectively.
In the case of `CS(=O)(=O)CCNCc1ccc(-c2ccc3ncnc(Nc4ccc(OCc5cccc(F)c5)c(Cl)c4)c3c2)o1` [Lapatinib] (1000 nM), the normalised viability in the assay on DU-4475 [2] was 94.5% and 86.5%; in the assay on CAL-51 [3], 105% and 94.6%; with CAL-148 [4], 82.4% and 94%; in the assay with MDA-MB-453 [5], 38% and 36.7%; in the assay on CAL-85-1 [6], 66.4% and 66.5%.
As to `Cn1cnc2c(F)c(Nc3ccc(Br)cc3F)c(C(=O)NOCCO)cc21` [MEK-162] (100 nM), the normalised viability was found to be 107% in the assay with HDQ-P1 [1]; 25.7% in the assay on DU-4475 [2]; 101% in the assay with CAL-51 [3]; 98.8% in the assay on CAL-148 [4]; 112% in the assay with MDA-MB-453 [5]; 82.1% with CAL-85-1 [6].
Consider `Cn1cnc2c(F)c(Nc3ccc(Br)cc3F)c(C(=O)NOCCO)cc21` [MEK-162] (1000 nM), for which the normalised viability in the assay with HDQ-P1 [7] is 91.2%; in the assay on DU-4475 [8], -0.34%; in the assay with CAL-51 [9], 84.5%; in the assay on CAL-148 [10], 90.6%; in the assay with MDA-MB-453 [11], 122%; in the assay with CAL-85-1 [12], 70.5%.
As to `CCOc1cc2ncc(C#N)c(Nc3ccc(OCc4ccccn4)c(Cl)c3)c2cc1NC(=O)/C=C/CN(C)C` [Neratinib] (100 nM), the normalised viability in the assay with HDQ-P1 [1] was 120%; with DU-4475 [2], 102%; with CAL-51 [3], 92.6%; with CAL-148 [4], 101%; in the assay on MDA-MB-453 [5], 76%; in the assay with CAL-85-1 [6] it was 94.9%.
For `CCOc1cc2ncc(C#N)c(Nc3ccc(OCc4ccccn4)c(Cl)c3)c2cc1NC(=O)/C=C/CN(C)C` [Neratinib] (1000 nM), the normalised viability is 116% in the assay on HDQ-P1 [7]; 105% in the assay on DU-4475 [8]; 92.5% in the assay with CAL-51 [9]; 79.5% in the assay with CAL-148 [10]; 75.8% in the assay on MDA-MB-453 [11]; 101% with CAL-85-1 [12].
`COc1ccc(C2=N[C@@H](c3ccc(Cl)cc3)[C@@H](c3ccc(Cl)cc3)N2C(=O)N2CCNC(=O)C2)c(OC(C)C)c1` [Nutlin-3] (1000 nM): the normalised viability was determined as 119% with HDQ-P1 [1]; 94.7% in the assay on DU-4475 [2]; 95.8% with CAL-51 [3]; 91.6% in the assay on CAL-148 [4]; 97.2% with MDA-MB-453 [5]; 88.9% with CAL-85-1 [6].
As to `COc1ccc(C2=N[C@@H](c3ccc(Cl)cc3)[C@@H](c3ccc(Cl)cc3)N2C(=O)N2CCNC(=O)C2)c(OC(C)C)c1` [Nutlin-3] (10000 nM), the normalised viability was 111% in the assay with HDQ-P1 [7]; 36.1% in the assay with DU-4475 [8]; 53.3% in the assay with CAL-51 [9]; 57.3% with CAL-148 [10]; 90% in the assay on MDA-MB-453 [11]; 86.6% with CAL-85-1 [12].
As for `COC1=CC(c2cc3ccccc3[nH]2)=N/C1=C\c1[nH]c(C)cc1C` [Obatoclax] (1000 nM), the normalised viability was determined as 41.6% with HDQ-P1 [1]; 78.4% with DU-4475 [2]; 72.3% in the assay on CAL-51 [3]; 78.3% in the assay on CAL-148 [4]; 34% in the assay with MDA-MB-453 [5]; 57.5% in the assay on CAL-85-1 [6].
For `COC1=CC(c2cc3ccccc3[nH]2)=N/C1=C\c1[nH]c(C)cc1C` [Obatoclax] (10000 nM), the normalised viability turned out to be 35.5% with HDQ-P1 [7]; 30% in the assay on DU-4475 [8]; 6.23% in the assay with CAL-51 [9]; 10.8% in the assay with CAL-148 [10]; 18.6% in the assay with MDA-MB-453 [11]; 22.1% in the assay with CAL-85-1 [12].
`CC(=O)O[C@H]1C(=O)[C@@]2(C)[C@H]([C@H](OC(=O)c3ccccc3)[C@]3(O)C[C@H](OC(=O)[C@H](O)[C@@H](NC(=O)c4ccccc4)c4ccccc4)C(C)=C1C3(C)C)[C@]1(OC(C)=O)CO[C@@H]1C[C@@H]2O` [Paclitaxel] (100 nM): the normalised viability worked out at 33% in the assay with HDQ-P1 [1]; 27.3% in the assay with DU-4475 [2]; 23.4% with CAL-51 [3]; 20.8% in the assay on CAL-148 [4]; 24.8% in the assay on MDA-MB-453 [5]; 31.8% in the assay on CAL-85-1 [6].
As to `CC(=O)O[C@H]1C(=O)[C@@]2(C)[C@H]([C@H](OC(=O)c3ccccc3)[C@]3(O)C[C@H](OC(=O)[C@H](O)[C@@H](NC(=O)c4ccccc4)c4ccccc4)C(C)=C1C3(C)C)[C@]1(OC(C)=O)CO[C@@H]1C[C@@H]2O` [Paclitaxel] (1000 nM), the normalised viability with HDQ-P1 [7] stood at 32.7%; in the assay on DU-4475 [8], 1.41%; in the assay with CAL-51 [9] it was 10.7%; with CAL-148 [10], 14.7%; in the assay on MDA-MB-453 [11] it was 21%; in the assay with CAL-85-1 [12], 33.1%.
On to `CC(C)(C)c1cc(NC(=O)Nc2ccc(-c3cn4c(n3)sc3cc(OCCN5CCOCC5)ccc34)cc2)no1` [Quizartinib] (100 nM), for which the normalised viability was found to be 95% in the assay with HDQ-P1 [1]; 115% in the assay with DU-4475 [2]; 114% with CAL-51 [3]; 98.8% with CAL-148 [4]; 96.6% in the assay with MDA-MB-453 [5]; 89.6% in the assay with CAL-85-1 [6].
With `O=C(c1ccc(OCCN2CCCCC2)cc1)c1c(-c2ccc(O)cc2)sc2cc(O)ccc12` [Raloxifene] (1000 nM), the normalised viability was 81.3% in the assay on HDQ-P1 [1]; 86.2% with DU-4475 [2]; 91.5% in the assay with CAL-51 [3]; 112% with CAL-148 [4]; 97.1% in the assay on MDA-MB-453 [5]; 101% in the assay with CAL-85-1 [6].
For the compound `Cn1c(=O)c(F)c(Nc2ccc(I)cc2F)c2c(=O)n(C[C@@H](O)CO)cnc21` [TAK-733] (100 nM), the normalised viability came out at 92% in the assay on HDQ-P1 [1]; 0.99% with DU-4475 [2]; 77.7% in the assay on CAL-51 [3]; 95% with CAL-148 [4]; 89.1% with MDA-MB-453 [5]; 60.2% with CAL-85-1 [6].
In the case of `CCS(=O)(=O)c1cccc(-c2cc(C(=O)NC3CCN(C)CC3)c(C)c3[nH]c4ncc(C)cc4c23)c1` [TAK-901] (100 nM), the normalised viability came to 87.2% with HDQ-P1 [1]; 78.5% with DU-4475 [2]; 56.5% with CAL-51 [3]; 40.3% in the assay with CAL-148 [4]; 65% in the assay on MDA-MB-453 [5]; 70.4% in the assay with CAL-85-1 [6].
Consider `c1ccc(C2CN3CCSC3=N2)cc1` (centres undefined) [Tetramisole], for which the normalised viability in the assay on MDA-MB-231 (10 nM) amounted to 96.5%; in the assay with MDA-MB-231 (1000 nM) it was 91.7%; with MDA-MB-231 (10000 nM), 104%.
